Here are results for 13 compounds from US8318730B2, “Fused hetrocyclic compounds” (Synta Pharmaceuticals Corporation, priority 2003, dated 2012).

Experiment [1] relates to DNBS-induced distal colitis in Wistar derived rats. Kind of experiment: Dinitrobenzene sulfonic acid-induced inflammatory bowel syndrome model rats. The format is in vivo, rat. The note with it: oral, 24 and 2 hours before DNBS instillation and then daily for 5 days. The method, then: Wistar derived male or female rats weighing 200±20 g and fasted for 24 hours are used. Distal colitis was induced by intra-colonic instillation of 2,4-dinitrobenzene sulfonic acid (DNBS, 25 mg in 0.5 mL ethanol 30%) after which air (2 mL) is gently injected through the cannula to ensure that the solution remained in the colon. A test compound and/or vehicle is administered orally 24 and 2 hours before DNBS instillation and then daily for 5 days. One control group is similarly treated with vehicle alone while the other is treated with vehicle plus DNBS. The animals are sacrificed 24 hours after the final dose of test compound administration and each colon is removed and weighed. Colon-to-body weight ratio is then calculated for each animal according to the formula: Colon (g)/BW×100. The “Net” increase in ratio of Vehicle-control+DNBS group relative to Vehicle-control group is used as a base for comparison with test substance treated groups and expressed as “% Deduction.” Fused heterocyclic compounds of this invention (e.g., Compound 12) reproducibly have about 30% deduction. A 30% or more reduction in colon-to-body weight ratio, relative to the vehicle treated control group, is considered significant.

Experiment [2] concerns adjuvant arthritis (AA) in female Lewis rats. Put plainly: Treatment of adjuvant arthritis in rats. Format: in vivo, rat. The note with it: oral administration once a day for 12 days; dose-dependent. How it is done:
Adjuvant arthritis (AA) is induced in female Lewis rats by the intracutaneous injection (base of the tail) of 0.1 mL of a 10 mg/mL bacterial suspension made from ground, heat-killed Mycobacterium tuberculosis H37Ra suspended in incomplete Freund's adjuvant. Rats are given a test compound orally once a day for 12 days, starting the day following the induction. The development of polyarthritis is monitored daily by macroscopic inspection and assignment of an arthritis index to each animal, during the critical period (days 10 to 25 post-immunization).
The intensity of polyarthritis scored according to the following scheme: (a) Grade each paw from 0 to 3 based on erythema, swelling, and deformity of the joints: 0 for no erythema or swelling; 0.5 if swelling is detectable in at least one joint; 1 for mild swelling and erythema; 2 for swelling and erythema of both tarsus and carpus; and 3 for ankylosis and bony deformity. Maximum score for all 4 paws is thus 12. (b) Grade for other parts of the body: for each ear, 0.5 for redness and another 0.5 if knots are present; 1 for connective tissue swelling (saddle nose); and 1 for the presence of knots or kinks in the tail. The highest possible arthritic index is […].

Experiment [3] deals with IL-12 production. Put plainly: In vitro assay of Example 12: inhibition of IL-12 production in IFNγ/LPS- or IFNγ/SAC-stimulated cells, ELISA. Format: cell-based, human. An excerpt:
The biological activities of a compound can be evaluated by a number of cell-based assays. One of such assays can be conducted using cells from human peripheral blood mononuclear cells (PBMC) or human monocytic cell line (THP-1). The cells are stimulated with a combination of human interferon-γ (IFNγ) and lipopolysaccharide or a combination of IFNγ and Staphylococcus aureus Cowan I in the presence of a test compound. The level of inhibition of IL-12 production can be measured by determining the amount of p70 by using a sandwich ELISA assay with anti-human IL-12 antibodies. IC50 of the test compound can then be determined. Specifically, PBMC or THP-1 cells are incubated with the test compound. Cell viability was assessed using the bioreduction of MTS [3-(4,5-dimethylthiazol-2-yl)-5-(3-carboxymethoxyphenyl)-2-(4-sulfophenyl)-2H-tetrazolium] (Promega, Madison, Wis.).
Staphylococcus aureus Cowan I (SAC) is obtained from Calbiochem (La Jolla, Calif.), and lipopolysaccharide (LPS, Serratia marscencens) is obtained from Sigma (St. Louis, Mo.). Human and mouse recombinant IFNγ are purchased from Boehringer Mannheim (Mannheim, Germany) and Pharmingen (San Diego, Calif.), respectively.
Human PBMC are isolated by centrifugation using Ficoll-Paque (Pharmacia Biotech, Uppsala, Sweden) and prepared in RPMI medium supplemented with 10% fetal calf serum (FCS), 100 U/mL penicillin, and 100 μg/mL streptomycin. PBMC are plated in wells of a 96-well plate at a concentration of 5×10^5 cells/well, and primed by adding IFNγ (30 U/mL) for 22 h and stimulated by adding LPS (1 μg/mL), or by adding IFNγ (100 U/mL) and then stimulated by adding SAC (0.01%). A test quinazoline compound is dissolved in DMSO, and added to wells of the 96-well plate. The final DMSO concentration is adjusted to 0.25% in all cultures, including the compound-free control. Human THP-1 cells are plated in wells, primed by adding IFNγ (100 U/mL) for 22 h and stimulated by adding SAC (0.025%) in the presence of different concentrations of the quinazoline compound. Cell-free supernatants are taken 18 h later for measurement of cytokines. Cell viability is assessed using the bioreduction of MTS. Cell survival is estimated by determining the ratio of the absorbance in compound-treated groups versus compound-free control.
The supernatant is assayed for the amount of IL-12p40, IL-12p70, or IL-10 by using a sandwich ELISA with anti-human antibodies, i.e., a Human IL-12 p40 ELISA kit from R&D Systems (Berkeley, Calif.), and a Human IL-12 p70 or IL-10 ELISA kit from Endogen (Cambridge, Mass.). Assays are based on the manufacturer's instructions.
The biological activities of quinazoline compounds are tested on human PBMC or THP-1 cells.

The test system of experiment [4] is colitis in C.B-17 SCID mice. Put plainly: CD4+ CD45Rb high T cell-reconstituted SCID colitis model mice. The format is in vivo, mouse. How it is done:
Spleen cells are prepared from normal female BALB/c mice. For cell purification, the following anti-mouse antibodies are used to label non-CD4^+ T cells: B220 (RA3-6B2), CD11b (Ml/70), and CD8a (53-6.72). All antibodies are obtained from BioSource (Camarillo, Calif.). M450 anti-rat IgG-coated magnetic beads (Dynal, Oslo, Norway) are used to bind the antibodies and negative selection is accomplished using an MPC-1 magnetic concentrator. The enriched CD4^+ cells are then labeled for cell sorting with FITC-conjugated CD45RB (16A, Pharmingen, San Diego, Calif.) and PE-conjugated CD4 (CT-CD4, Caltag, Burlingame, Calif.). CD4^+ CD45RB^high cells are operationally defined as the upper 40% of CD45Rb-staining CD4^+ cells and sorted under sterile conditions by flow cytometry. Harvested cells are resuspended at 4×10^6/mL in PBS and injected 100 μL intraperitoneally into female C.B-17 SCID mice. Fused heterocyclic compounds of this invention and/or vehicle is orally administered once a day, 5 days per week, starting the day following the transfer. The transplanted SCID mice are weighed weekly and their clinical condition is monitored.
Colon tissue samples are fixed in 10% buffered formalin and embedded in paraffin. Sections (4 μm) collected from ascending, transverse, and descending colon are cut and stained with hematoxylin and eosin. The severity of colitis is determined based on histological examination of the distal colon sections, whereby the extent of colonic inflammation is graded on a scale of 0-3 in each of four criteria: crypt elongation, cell infiltration, depletion of goblet cells, and the number of crypt abscesses.
LP lymphocytes are isolated from freshly obtained colonic specimens. After removal of payer's patches, the colon is washed in Ca/Mg-free HBSS, cut into 0.5 cm pieces and incubated twice in HBSS containing EDTA (0.75 mM), DTT (1 mM), and antibiotics (amphotericin 2.5 μg/mL, gentamicin 50 μg/mL from Sigma) at 37° C. for 15 min. Next, the tissue is digested further in RPMI containing 0.5 mg/mL collagenase D, 0.01 mg/mL DNase I (Boehringer Manheim), and antibiotics at 37° C. LP cells are then layered on a 40-100% Percoll gradient (Pharmacia, Uppsala, Sweden), and lymphocyte-enriched populations are isolated from the cells at the 40-100% interface.
To measure cytokine production, 48-well plates are coated with 10 μg/mL murine anti-CD3ε antibody (145-2C11) in carbonate buffer (PH 9.6) overnight at 4° C. 5×10^5 LP cells are then cultured in 0.5 ml of complete medium in precoated wells in the presence of 1 μg/mL soluble anti-CD28 antibody (37.51). Purified antibodies are obtained from Pharmingen. […] Murine IFNγ is measured using an ELISA kit from Endogen (Cambridge, Mass.), according to the manufacturer's instructions.

The mark [5] stands for this setting: Homo sapiens, assay of Example 12, if more than one assay was performed, only the most active IC50 result is reported.
The mark [6] stands for this setting: measured in an assay according to Example 12, human PBMC or THP-1 cells.

`Cc1cccc(-c2ccc3nc(OCCN4CCOCC4)nc(N4CCOCC4)c3c2)c1` [Compound 12, 4-Morpholin-4-yl-2-(2-morpholin-4-yl-ethoxy)-6-m-tolyl-quinazoline]: in experiment [1], the “% Deduction (colon-to-body weight ratio)” value was “about 30%”. In addition, in experiment [2], the arthritic score result was “reproducibly reduces the arthritic score” and the development of polyarthritis entry was “delayes the development of polyarthritis”. In addition, the IC50 (commonly the point on the concentration scale where inhibition reaches its midpoint) in experiment [3] (setting [5]) came out at 0.189 µM. For the same compound, the “IFNγ production by LP cells in response to anti-CD3 and anti-CD28 antibody” value in experiment [4] (ex vivo LP cells from treated mice) is given as “greatly diminishes the production”. Further, the colon-to-body weight ratio entry in experiment [4] (oral administration) is listed as “attenuation”. For the same compound, in experiment [4] (oral administration, compared to vehicle control), the “colonic inflammation (histological analysis)” value is “reduce colonic inflammation”. In addition, in experiment [4] (oral, dose of 10 mg/kg), the “colonic inflammation, suppressive effect” value is reported as “substantial reduction”.

With `COc1ccc(CCOc2nc(N3CCOCC3)c3cc(Oc4ccccc4Cl)ccc3n2)cc1OC` [Compound 34, 6-(2-Chloro-phenoxy)-2-[2-(3,4-dimethoxy-phenyl)-ethoxy]-4-morpholin-4-yl-quinazoline], in experiment [3] (setting [5]), the half-inhibitory concentration (IC50) was determined as 0.347 µM.

As for `COc1ccc(CCOc2nc(N3CCOCC3)c3cc(-c4ccccc4)ccc3n2)cc1OC` [Compound 19, 2-[2-(3,4-Dimethoxy-phenyl)-ethoxy]-4-morpholin-4-yl-6-phenyl-quinazoline], the concentration for half-maximal inhibition (IC50) in experiment [3] (setting [5]) is 6.91 µM.

As for `Cc1ccc(Oc2cnc3nc(OCCN4CCOCC4)nc(N4CCOCC4)c3c2)cc1` [Compound 47, 4-Morpholin-4-yl-2-(2-morpholin-4-yl-ethoxy)-6-p-tolyloxy-pyrido[2,3-d]pyrimidine], in experiment [3] (setting [5]), the IC50 is more than 1 µM.

For `Cc1cccc(-c2cc(O)c3cc(OCCN4CCOCC4)cc(N4CCOCC4)c3n2)c1` [Compound 49, 8-Morpholin-4-yl-6-(2-morpholin-4-yl-ethoxy)-2-m-tolyl-quinolin-4-ol], in experiment [3] (Homo sapiens, in an assay according to Example 12), the concentration for half-maximal inhibition (IC50) was 5.4 µM.

Consider `Cc1ccc(-c2ccc3nc(OCCN4CCOCC4)nc(N4CCOCC4)c3c2)cc1` [Compound 37, 4-Morpholin-4-yl-2-(2-morpholin-4-yl-ethoxy)-6-p-tolyl-quinazoline], for which the IC50 in experiment [3] (setting [5]) was found to be 2.5 µM.

Turning to `Cc1cccc(-c2ccc3nc(OCCc4ccccn4)nc(N4CCOCC4)c3c2)c1` [Compound 16, 4-Morpholin-4-yl-2-(2-pyridin-2-yl-ethoxy)-6-m-tolyl-quinazoline], the IC50 in experiment [3] (setting [5]) worked out at 0.086 µM.

As to `COc1ccc(CCOc2nc(N3CCOCC3)c3cc(-c4cccc(C(F)(F)F)c4)ccc3n2)cc1OC` [Compound 20, 2-[2-(3,4-Dimethoxy-phenyl)-ethoxy]-4-morpholin-4-yl-6-(3-trifluoromethyl-phenyl)-quinazoline], the IC50 in experiment [3] (setting [5]) is 0.107 µM.

As to `COc1ccc(CCOc2nc(N3CCOCC3)c3cc(-c4cccc(C(N)=O)c4)ccc3n2)cc1OC` [Compound 24, 3-{2-[2-(3,4-Dimethoxy-phenyl)-ethoxy]-4-morpholin-4-yl-quinazolin-6-yl}-benzamide], the IC50 in experiment [3] (setting [5]) turned out to be 1.43 µM.

For the compound `COc1cc2nc(N3CCOCC3)nc(Nc3ccc4[nH]c(C)c(C)c4c3)c2cc1OC` [Compound 2, (6,7-Dimethoxy-2-morpholin-4-yl-quinazolin-4-yl)-(2,3-dimethyl-1H-indol-5-yl)-amine], the IC50 in experiment [3] (setting [6]) came out at 0.109 µM.

Take `Cc1cccc(/C=N/Nc2nc(N3CCOCC3)nc3cc(Cl)ccc23)c1` [Compound 8, N-(7-Chloro-2-morpholin-4-yl-quinazolin-4-yl)-N′-(3-methyl-benzylidene)-hydrazine]: the IC50 in experiment [3] (setting [6]) was 0.298 µM.

For the compound `Cc1[nH]c2ccc(Nc3nc(N4CCOCC4)nc4ccc([N+](=O)[O-])cc34)cc2c1C` [Compound 10, (2,3-Dimethyl-1H-indol-5-yl)-(2-morpholin-4-yl-6-nitro-quinazolin-4-yl)-amine], in experiment [3] (setting [6]), the IC50 was 5 µM.

Regarding `COc1ccc(CCOc2nc(N3CCOCC3)c3cc(-c4cccc(C#N)c4)ccc3n2)cc1OC` [Compound 23, 3-{2-[2-(3,4-Dimethoxy-phenyl)-ethoxy]-4-morpholin-4-yl-quinazolin-6-yl}-benzonitrile], the IC50 in experiment [3] (setting [5]) was more than 10 µM.
